Measurements published in patent US20230414754A1, “CONDITIONAL CONTROL OF UNIVERSAL CAR T CELLS THROUGH STIMULUS-REACTIVE ADAPTORS” (UNIVERSITY OF PITTSBURGH-OF THE COMMONWEALTH SYSTEM OF …, priority 2020, published 2023).

Key:
SNAPtag = assay: Incubation of MTGase-made adaptor with SNAP protein, SDS-PAGE; type: biochemical; conditions: SNAPtag 2 eq. per BG
Method: (§1) 55. FIGS. 26A and 26B show MTGase enzymatic antibody-adaptor conjugation. […] CD69 T cell activation marker expression on the CAR T cells was evaluated after 24 h. n=3 biol. reps.
(§2) 187. In a complementary, enzymatic conjugation approach we synthesized the terminal amine 11 from the commercially available PEG 10 (FIG. 12A), and target a conserved glutamine located in each of the heavy chains of the de-glycosylated IgG1 antibody through selective modification by the enzyme MTGase (FIG. 12B). This generates uniform conjugates in quantitative yields adding exactly two modifications using conserved glutamines as the only γ-carbonyl amide donors on dei-glycosylated IgGls, This method that has been used for dozens of clinical use ADCs. […] In addition, the site-specific adaptor was efficient at inducing T cell activity (FIG. 26B).

CD20+ Raji target cells = assay: SNAP-CAR T cell activation (CD69) with MTGase-produced site-specific adaptor; type: cell-based, human; conditions: CD69 after 24 h
Method: as §1, §2

SNAP-synNotch receptor = SNAP-synNotch receptor activation in Jurkat cells co-incubated with target cells (TagBFP output); type: cell-based
Text: 51. […] The system triggers Gal4-VP64 transcription factor-driven TagRFP expression. […] TagRFP levels are reported as mean fluorescence intensity (MFI), n=3 biologically independent experiments±s.d.
176. We created a universal adaptor synNotch to direct receptor activation and the resulting transcriptional gene output in response to interaction with BG-conjugated adaptor antibodies on the surface of target cells (FIG. 22). We cloned a SNAP-synNotch receptor consisting of the SNAPtag domain fused to the Notch core protein, and the Gal4-transcription factor (to turn on a gal4 promoter-driven TagBFP gene) and transduced Jurkat cells. […] Receptor activation was sensitive and tunable, with a significant response at an antibody concentration as low as 0.04 μglmL and increasing to a peak at 0.25 μg/mL. Response gene activation then decreased with increasing antibody indicative of a “hook effect”—as expected in ternary complex formation. BG-conjugated antibodies targeting other antigens were also capable of activating the SNAP-synNotch receptor in an antigen-specific manner indicating universality of the cell re-programming approach.

Row | Substance | BG labeling by incubation with SNAP protein (SNAPtag) | inducing T cell activity (CD20+ Raji target cells) | function of universal adaptor synNotch system (SNAP-synNotch receptor)
1 | RTX-BG: PEG2-BG labeled Rituximab adaptor made via MTGase conjugation | near complete | efficient | 
2 | mSA2 |  |  | ineffective
